“Also recorded” adds a separate entry of the source.
How the values were obtained:
[1] = biological target: T1, recombinant human EphB3 kinase (Homo sapiens, UniProt P54753); test: IC50 for inhibiting EphB3 phosphorylation of the BTK peptide (33P radiometric assay, assay of Examples 1-6); type: biochemical; details: for EphB3 tyrosine kinase inhibitor activity (in words): inhibition of EphB3 phosphorylation of the BTK peptide; for IC50: inhibiting EphB3 phosphorylation of the BTK peptide (SEQ ID NO: 4)
T1 sequence (P54753 633-896 limits assumed): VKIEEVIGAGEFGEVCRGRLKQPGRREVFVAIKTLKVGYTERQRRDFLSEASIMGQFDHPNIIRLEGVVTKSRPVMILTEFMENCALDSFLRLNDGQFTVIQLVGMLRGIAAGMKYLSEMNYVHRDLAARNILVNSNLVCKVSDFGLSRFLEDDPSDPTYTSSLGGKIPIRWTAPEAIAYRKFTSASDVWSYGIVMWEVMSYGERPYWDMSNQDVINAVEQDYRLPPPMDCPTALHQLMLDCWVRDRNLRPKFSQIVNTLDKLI

[2] = test system: Animal Model for Stroke (ischemia); test: Infarct volume in animal model for stroke (2 h artery occlusion, compound ICV, TTC staining); type: in vivo, Sprague-Dawley rats; details: different doses administered ICV; FIG. 6(E), FIG. 7(A)
[3] = test system: panel of tumor cell lines; test: Dose-response against a panel of tumor cell lines (SRB, % growth); type: cell-based, human; details: leukemia, non-small cell lung, colon, CNS, melanoma, ovarian, renal, prostate, breast cancer lines; FIG. 8(A)-(I)
Description: The y-axis depicts the % growth and the x-axis depicts the compound concentration. The legends below each graph refer to the different tumor cell lines used. […]
The human tumor cell lines of the cancer screening panel were grown in RPMI 1640 medium containing 5% fetal bovine serum and 2 mM L-glutamine. For a typical screening experiment, cells were inoculated into 96 well microtiter plates in 100 μL at plating densities ranging from 5,000 to 40,000 cells/well depending on the doubling time of individual cell lines. After cell inoculation, the microtiter plates were incubated at 37° C., 5% CO2, 95% air and 100% relative humidity for 24 hours prior to addition of experimental drugs. […]
Following drug addition, the plates were incubated for an additional 48 h at 37° C., 5% CO2, 95% air, and 100% relative humidity. […] Bound stain was subsequently solubilized with 10 mM trizma base, and the absorbance is read on an automated plate reader at a wavelength of 515 nm. […] Using the seven absorbance measurements [time zero, (Tz), control growth, (C), and test growth in the presence of drug at the five concentration levels (Ti)], the percentage growth was calculated at each of the drug concentrations levels. Percentage growth inhibition was calculated as: [(Ti−Tz)/(C−Tz)]×100 for concentrations for which Ti>/=Tz [(Ti−Tz)/Tz]×100 for concentrations for which Ti<Tz. […]

[4] = test system: Animal Model for Stroke (ischemia); test: Neurological score / neurological deficit after ischemic injury; details: rated between 0 (unaffected) and 4 (worst); different doses; FIG. 7(B)
recombinant EphB3 = biological target: T2, recombinant EphB3 (Homo sapiens, UniProt P54753); details: published data, scintillation proximity assay, different substrate; cited from earlier work
T2 sequence (P54753 34-998): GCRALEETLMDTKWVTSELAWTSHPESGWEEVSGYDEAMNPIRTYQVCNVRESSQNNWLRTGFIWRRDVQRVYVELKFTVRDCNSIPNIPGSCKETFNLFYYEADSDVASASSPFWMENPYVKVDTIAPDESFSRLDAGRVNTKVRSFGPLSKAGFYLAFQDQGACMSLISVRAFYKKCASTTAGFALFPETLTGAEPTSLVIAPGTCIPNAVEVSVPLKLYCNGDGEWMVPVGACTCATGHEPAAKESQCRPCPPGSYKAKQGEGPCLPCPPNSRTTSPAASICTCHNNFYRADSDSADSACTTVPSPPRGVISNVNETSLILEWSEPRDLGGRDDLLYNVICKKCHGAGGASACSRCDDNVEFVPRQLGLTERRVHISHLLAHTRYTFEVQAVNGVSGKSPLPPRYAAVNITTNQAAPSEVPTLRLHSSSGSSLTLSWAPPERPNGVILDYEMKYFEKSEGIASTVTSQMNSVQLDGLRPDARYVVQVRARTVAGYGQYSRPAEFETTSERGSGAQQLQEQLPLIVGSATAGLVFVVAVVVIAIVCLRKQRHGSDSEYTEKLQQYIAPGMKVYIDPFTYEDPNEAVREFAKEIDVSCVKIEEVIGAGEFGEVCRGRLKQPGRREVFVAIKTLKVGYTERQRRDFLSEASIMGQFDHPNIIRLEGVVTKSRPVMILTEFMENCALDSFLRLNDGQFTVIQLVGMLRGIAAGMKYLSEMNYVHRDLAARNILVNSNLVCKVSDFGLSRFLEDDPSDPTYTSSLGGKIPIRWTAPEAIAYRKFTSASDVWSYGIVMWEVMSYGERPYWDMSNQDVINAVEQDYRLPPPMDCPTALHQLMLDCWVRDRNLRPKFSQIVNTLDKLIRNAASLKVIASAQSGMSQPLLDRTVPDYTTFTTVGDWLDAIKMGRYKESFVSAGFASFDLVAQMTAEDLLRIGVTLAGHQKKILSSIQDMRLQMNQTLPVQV

[5] = biological target: T3, recombinant human EphB3 kinase (Homo sapiens, UniProt P54753); test: HTRF assay of BTK substrate phosphorylation by EphB3 kinase (known kinase inhibitors)
T3 sequence (P54753 585-998): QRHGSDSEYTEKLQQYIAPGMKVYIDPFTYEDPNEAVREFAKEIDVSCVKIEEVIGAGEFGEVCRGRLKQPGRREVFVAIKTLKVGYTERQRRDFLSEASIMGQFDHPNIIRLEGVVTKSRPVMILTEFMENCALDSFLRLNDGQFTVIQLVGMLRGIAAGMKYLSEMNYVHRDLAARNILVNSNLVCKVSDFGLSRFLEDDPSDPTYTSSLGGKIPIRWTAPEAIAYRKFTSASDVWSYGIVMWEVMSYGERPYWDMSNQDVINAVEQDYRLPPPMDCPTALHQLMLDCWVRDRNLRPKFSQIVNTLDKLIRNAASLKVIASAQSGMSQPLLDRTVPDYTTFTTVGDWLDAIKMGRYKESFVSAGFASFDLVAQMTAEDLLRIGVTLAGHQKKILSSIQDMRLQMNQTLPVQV

[6] = Table 1 pyrazolo[1,5-a]pyridine compounds

Structure (SMILES) | EphB3 tyrosine kinase inhibitor activity (in words) [1] | IC50 [1, 6] [µM] | further results
O=C(Nc1ccccc1Cl)c1cnn2ccccc12 [Compound 1] | showed EphB3 tyrosine kinase inhibitor activity |  | 
CN(C(=O)c1cnn2ccccc12)c1ccccc1Cl [Compound 187597] | inactive | > 20 | 
O=C(Nc1ccccc1)c1cnn2ccccc12 [Compound 187598] | little or no inhibition | > 20 | 
O=C(Nc1cccc(Cl)c1)c1cnn2ccccc12 [Compound 187600] | little or no inhibition | > 20 | 
O=C(Nc1ccc(Cl)cc1)c1cnn2ccccc12 [Compound 187601] | little or no inhibition | > 20 | 
O=C(NCc1ccccc1Cl)c1cnn2ccccc12 [Compound 187604] | little or no inhibition; also recorded: inactive | > 20 | 
COc1ccccc1NC(=O)c1cnn2ccccc12 [Compound 187605] | little or no inhibition | > 20 | 
Cn1cc(C(=O)Nc2ccccc2Cl)c2ccccc21 [Compound 187609] |  |  | IC50 ([1]; Table 2 candidate compounds): > 20 µM
O=C(Nc1ccccc1Cl)c1ccnc2ccccc12 [Compound 187611] |  |  | IC50 ([1]; Table 2 candidate compounds): > 20 µM
O=C(Nc1ccccc1Cl)c1noc2ccccc12 [Compound 193671] |  |  | IC50 ([1]; Table 2 candidate compounds): > 20 µM
Cc1cccc2c(C(=O)Nc3ccccc3Cl)cnn12 [Compound 193694] |  | > 20 | 
O=C(Nc1ccccc1Cl)c1cnn2cccnc12 [Compound 193695] |  |  | IC50 ([1]; Table 2 candidate compounds): > 20 µM
O=C(Nc1ccccc1Cl)c1cnn2ncccc12 [Compound 193697] |  |  | IC50 ([1]; Table 2 candidate compounds): > 20 µM
O=C(Nc1ccccc1Cl)c1cnn2ccc(N3CCCC3)cc12 [Compound 194727, N-(2-chlorophenyl)-5-(pyrrolidin-1-yl)pyrazolo[1,5-a]pyridine-3-carboxamide] |  | < 0.3 | 
O=C(Nc1ccccc1Cl)c1cnc2ccc(Br)cn12 [Compound 209925, 6-bromo-N-(2-chlorophenyl)imidazo[1,2-a]pyridine-3-carboxamide] |  |  | IC50 ([1]; Table 3 imidazo[1,2-a]pyridine compounds): < 0.2 µM
O=C(Nc1ccccc1Cl)c1cnc2ccc(C3CCNCC3)cn12 [Compound 211904, N-(2-chlorophenyl)-6-(piperidin-4-yl)imidazo[1,2-a]pyridine-3-carboxamide] |  |  | Infarct volume at different compound doses [2]: dose-dependent decrease in infarct volume; % growth of tumor cell lines [3]: inhibited; Neurological deficit [4]: dose-dependent neuroprotection in behavior
CC(C)(C)n1nc(-c2ccc(Cl)cc2)c2c(N)ncnc21 [PP2] |  |  | IC50 (recombinant EphB3): 800 nM; IC50 ([5]; 12.5 nM EphB3, 30 min preincubation at RT, […] ATP, 600 nM BTK for 1 hr): 1700 nM; inhibition ([5]; at 10 μM, HTS positive control): 80%
CN[C@@H]1C[C@H]2O[C@@](C)([C@@H]1OC)n1c3ccccc3c3c4c(c5c6ccccc6n2c5c31)C(=O)NC4 [Staurosporine, staurosporine] |  |  | inhibition at 100 µM ([5]; read-out: inhibition of phosphorylation): 50%
